The target of this test is T1, IscS (Escherichia coli, UniProt P0A6B7).
T1 construct: pET vector, expressed in E. coli BL21(DE3), HisTrap Ni-NTA and Sephacryl S-300 purified; homodimer
The experiment in a line: methylene blue sulfide detection assay, […] nm, anaerobic. It counts as biochemical. Particulars: 50 mM Tris/150 mM NaCl, pH 8.5, 37 °C, 4 mM DTT; IscS 0.5 uM, without IscU; L-cysteine varied.

Each structure is given as a SMILES string.

T1 sequence (P0A6B7 whole entry): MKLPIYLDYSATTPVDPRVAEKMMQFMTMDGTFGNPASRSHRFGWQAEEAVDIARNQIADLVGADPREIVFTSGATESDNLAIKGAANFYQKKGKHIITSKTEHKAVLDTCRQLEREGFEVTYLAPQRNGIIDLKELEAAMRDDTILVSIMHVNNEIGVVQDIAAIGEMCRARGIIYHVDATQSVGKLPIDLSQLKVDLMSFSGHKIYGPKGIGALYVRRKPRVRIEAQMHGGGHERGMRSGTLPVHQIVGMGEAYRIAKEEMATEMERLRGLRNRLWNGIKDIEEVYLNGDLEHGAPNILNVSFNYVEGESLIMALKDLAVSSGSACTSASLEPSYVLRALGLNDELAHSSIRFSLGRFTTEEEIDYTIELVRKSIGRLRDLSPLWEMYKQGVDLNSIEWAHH

On to `N[C@@H](CS)C(=O)O` [L-cysteine], for which the “methylene blue sulfide detection assay, 670 nm, anaerobic” value is reported as “Sulfide production was quantitated at different L-cysteine concentrations to determine the k cat values”.

For the origin of these results see publication PMC12784406, “IscS Kinetics in Native Mass Spectrometry Buffers Reveal Key Physiochemical Properties that Influence Enzyme Activity” (Journal of the American Society for Mass Spectrometry, 2025).
